Measurements as given in US8790678B2, “Biomaterials having nanoscale layers and coatings” (Washington University, priority 2006, dated 2014).
Bridges are numbered along the chain shown (N, C = ends). Where no end group is shown, it is not given here.

What was measured:
[1] = Hydrogel mesh size by modified SDS-PAGE gel; type: physicochemical; settings: PEG-OVS/albumin layer in SDS-PAGE gel
Method: The mesh size of PEG-OVS/albumin hydrogels was investigated using a modified SDS-PAGE gel to characterize the migration of albumin through the PEG hydrogels. A 15% acrylamide gel was formed at the bottom of the casting chamber, with a spacer to form a well on the left side of the gel. After the acrylamide solidified, the PEG-OVS/albumin precursor solution was pipetted into the formed well. The casting stand was placed in a humidified 37° C. incubator for 24 h to crosslink the PEG gel. A 7% acrylamide gel was formed over the polymerized gels, followed by a stacking gel. A solution of bovine serum albumin (BSA) was loaded into the wells of the gel, which was run under standard conditions. The gel was stained with Coomassie Blue.

[2] = test system: Human aortic endothelial cells; assay: Single cell tracking on RGD/PEG-OVS/albumin hydrogels under fluid shear stress; type: cell-based; settings: for loss of cells from the hydrogel: highest RGD concentration, over 12 h
Method: Human aortic endothelial cells seeded onto RGD/PEG-OVS/albumin hydrogels at 1000-2000 cells/cm^2 were tracked under 20 dynes/cm^2 fluid shear stress in HEPES-buffered low serum medium (HEPES-LSM; MCDB 131 with 0.1% FBS, 1% ABAM, […] HEPES, pH 7.4) containing 0.4% FAF-BSA for 12 h.
Time lapse microscopy images were obtained every 2 min for 12 h of endothelial cell migration on the surface of RGD containing PEG hydrogels. The percent of cells remaining on the gels during the course of the experiment was recorded for each RGD concentration. The projected cell areas of all cells were determined by manually outlining the cells after 3 h under 20 dyne/cm^2 shear stress. Single endothelial cells were manually tracked for 12 h to obtain XY-coordinate data for the center of each cell. Coordinate data from every six minutes (Δt=6 min) for all cells in each experiment were saved as variables for analysis in MATLAB (The MathWorks, Natick, Mass.). At each time point i, ti=iΔt, the mean squared displacement was calculated using the overlapping interval method. The speed of each individual was calculated by dividing the root mean-square displacement for a single time interval by the tracking interval (6 min). Each cell's persistence time was determined by fitting the persistent random walk model given by Equation 1: <d^2(t)>=2S^2P[t−P(1−e^−t/P)] [1] using the calculated speed by nonlinear least squares regression analysis as previously described (Dunn 1983; Othmer, Dunbar and Alt 1988; Harms et al. 2005). Speed simply represents the total path length of a cell over time. Persistence time represents the time period between changes in the direction of movement of more than 60°. Path length is calculated as the product of speed and persistence time. Cell dispersion is the product of speed squared and persistence time. Cell areas were obtained by manually tracing cells. All data was analyzed by ANOVA Scheffe post hoc. Endothelial Response to Linear RGD Concentration—Cell Attachment Strength

[3] = test system: chorioallantoic membrane (CAM); assay: Chick chorioallantoic membrane (CAM) angiogenesis assay; type: in vivo, chicken; settings: 50 ng spotted on Thermanox coverslip, two days
Method: Embryonated chicken eggs were incubated blunt-end up in a 37° C. incubator. At embryonal day 6, the top of the egg was cracked and removed using tweezers to create a 1.5 cm diameter opening. The inner shell membrane was removed, exposing the CAM. A 20 μL PEG hydrogel was then placed onto the CAM. As controls, 50 ng bFGF or 50 ng S1P were spotted onto small pieces of Thermanox coverslips (Nunc), air dried and placed onto the CAM. The eggs were sealed with parafilm and returned to the incubator. After two days of incubation, the eggs were reopened and the degree of angiogenesis was visually assessed.

D-erythro-sphingosine = assay: Activity of GST-tagged sphingosine kinase by TLC; type: biochemical, human; settings: 10 μg/mL protein, 50 μM D-erythro-sphingosine
Text: Hydrogels were formed with the enzyme sphingosine kinase to produce S1P in the materials from a precursor (sphingosine) naturally present in the blood. Human sphingosine kinase was cloned by RT-PCR from human umbilical vein endothelial cell mRNA. The PCR insert with the correct sequence was transferred from the cloning vector to the expression vector, pGEX-6P-1, using the restriction enzymes EcoRI and XhoI, to create an N-terminal GST-tagged sphingosine kinase [SEQ ID NO. 1]. The plasmid with the correct sequence was transfected into BL21 E. coli and the cells were grown to OD600 0.6 in LB medium. Protein expression was induced with 1 mM IPTG. After 3 h, the cells were harvested by centrifugation for 20 min at 6000 g, 4° C. The cells were lysed with lysozyme and sonication. The lysate was centrifuged at 50,000 g for 45 min at 4° C. and the supernatant was filtered. The GST-containing protein was purified using GSTrap FF columns. Activity of the protein (10 μg/mL) was assessed by incubation with 50 μM D-erythro-sphingosine and […] in 0.1% BSA in PBS for 0-30 min, followed by dilution 1:1 with methanol and acidification to pH 1 with HCl. Lipids were extracted into chloroform and analyzed by thin layer chromatography on silica plates with butanol-acetic acid-water 6:2:2, with detection by ninhydrin. There was complete conversion to sphingosine 1-phosphate within 30 min.

[4] = Sulforhodamine B release from preloaded hydrogels; type: physicochemical; settings: 500 nmol preloaded, 554 nm
Method: The effect of gel mesh size on the diffusion of small molecules was tested using a water-soluble dye molecule, sulforhodamine B. Sulforhodamine B (500 nmol) was preloaded into gels formed with PEG-OVS crosslinked with albumin, PEG-diamine, or DTT. The gels were incubated win PBS and the release of sulforhodamine B was detected by visible light spectroscopy at 554 nm over time. The molecular weight of sulforhodamine is 580.7, compared to 379.5 for S1P, and the diffusivity of the dye would be expected to be lower than that of S1P. Using the Wilke-Chang correlation, we calculated a diffusion coefficient of 3.42×10^−6 cm^2/sec for sulforhodamine and 4.15×10^−6 cm^2/sec for S1P, both at 37° C.

[5] = test system: Human Umbilical Vein Endothelial Cells (HUVEC); assay: Cell adhesion assay on layer-by-layer PEG hydrogel coatings; type: cell-based; settings: RGD peptide attached to PEG-VS/PEG-diamine hydrogel; medium containing serum proteins
Method: Hydrogels were formed layer-by-layer by conjugate addition reactions between PEG-VS and PEG-diamine. First, the surface of the substrate was activated to create reactive amine groups. Clean glass coverslips were incubated in 2% 3-aminopropyltriethoxysilane in dry acetone solution for one hour with gentle shaking. The aminophase coverslips were then cured at 100° C. for a 3 h, and stored in a clean Petri dish until use. The activated substrates were incubated with a solution containing 1% eight-arm PEG-VS overnight at pH 8.5 and 37° C. The substrates were subsequently incubated with a solution of 1% PEG-diamine (mol. wt. 3400, Shearwater Polymers) for 1 h at 37° C. This two-step process was repeated to create multiple layers (one layer comprises PEG-VS+PEG-diamine). Between incubations with PEG-VS or PEG-diamine, the surfaces were washed six times with PBS. After the formation of five layers, the substrates were incubated with PEG-VS for 1 h at 37° C. […]
The RGD peptide acetyl-GCGYGRGDSPG [SEQ ID NO. […] The peptide was purified by C18 chromatography and analyzed by MALDI-TOF mass spectrometry. […]
Human Umbilical Vein Endothelial Cells (HUVEC, Clonetics) were grown in endothelial cell growth medium (EGM, Clonetics) on tissue culture polystyrene at 37° C. and 5% CO2. […] Cells on the surfaces were imaged by phase contrast microscopy and the number of cells was counted manually.

HAEC = assay: Centrifugation assay of cell adhesion strength on RGD hydrogels; type: cell-based, human; settings: range as RGD concentration in PEG-OVS/albumin hydrogel was increased; 6 h adhesion
Method: Cell adhesion strengths to the RGD containing hydrogel surfaces were assessed using a centrifugation assay to apply controlled detachment forces. PEG hydrogels (75 μL) of various concentrations of RGD were formed on the bottom of a 48-well non-treated culture plate. Following crosslinking for 24 h, HAEC were seeded onto the gels at 10,000 cells/cm^2 in 500 μL EGM. After 6 h to allow the cells to attach and spread, the gels were washed with DPBS. The wells were filled with DPBS to the top of the wells and then covered with adhesive sealing tape. Images were obtained at 4× to quantify the number of cells initially attached to the hydrogel. […] The percent of cells remaining on the hydrogel was quantified. […]
The effects of changing the linear RGD concentration on the initial adhesion strength of endothelial cells to PEG-OVS/albumin hydrogels were examined. […] Cell adhesion strengths were assessed by centrifugation of inverted, sealed plates containing hydrogels polymerized in the bottoms of wells. The percent of cells remaining adhered to the hydrogels after centrifugation for 5 min was measured for various forces of detachment on each concentration of linear RGD. […]
The initial adhesion strength of endothelial cells to the PEG hydrogels containing cyclic RGD peptide was measured after 6 hours to allow for endothelial cell adhesion. […]

For “lysozyme: molecular weight marker (14.4 kDa)”, the “migration of protein through the PEG hydrogel” value [1] was “freely passed through”.

For “Ac-GCNAC*RGDGWC*G (Ac-GCNACRGDGWCG; disulfide 5-11) [cyclic RGD, cyclic RGD peptide cyclized by disulphide formation]”, the “cell migration speed relative to cells without RGD” value ([2]; 0.69 mM cyclic RGD, 100 nM S1P) was “more than twice”, the “migration speed greater than the highest speed on linear RGD with 100 nM S1P” value ([2]; 0.69 mM cyclic RGD, 100 nM S1P) was 44% and the “loss of cells from the hydrogel” value ([2]; 20 dyne/cm^2) was “about 20%”. The “RGD concentration of peak migration speed” value ([2]; with 100 nM S1P, 20 dyne/cm^2) was 0.69 mM.

In the case of “bFGF: control angiogenic factor in CAM assay”, the angiogenic response [3] is reported as “strong angiogenic responses”.

With “N-terminal GST-tagged sphingosine kinase: human sphingosine kinase cloned from HUVEC mRNA with N-terminal GST tag” the “time to complete conversion to sphingosine 1-phosphate” value (D-erythro-sphingosine) was ≤ 30 min.

In the case of aprotinin, the “migration of protein through the PEG hydrogel” value [1] is reported as “freely passed through”.

With `CCN(CC)c1ccc2c(-c3ccc(S(=O)(=O)O)cc3S(=O)(=O)[O-])c3ccc(=[N+](CC)CC)cc-3oc2c1` [sulforhodamine B] the “time to near complete release of dye into PBS” value [4] was ~6 h.

In the case of “acetyl-GCGYGRGDSPG (Ac-GCGYGRGDSPG; not fully specified (C-terminus); printed as acetyl-GCGYGRGDSPG) [linear RGD, cell adhesion-promoting peptide]”, the “HUVEC adhesion to multilayered PEG hydrogel” value [5] is reported as “restored HUVEC adhesion”, the “detachment force required to remove 50% of the cells (F50)” value (HAEC) is reported as 850-1120 pN and the “loss of cells from the hydrogel” value ([2]; 20 dyne/cm^2) is reported as “less than 5%”. The “RGD concentration of maximum dispersion” value ([2]; without S1P) was 4.12 mM, the “RGD concentration of maximum path length” value ([2]; without S1P) was 4.12 mM and the “RGD concentration of maximum cell speed” value ([2]; without S1P, 20 dynes/cm^2) was 4.12 mM.

With “Albumin: bovine serum albumin loaded on the SDS-PAGE gel” the “migration of protein through the PEG hydrogel” value [1] was “hindered”.
